Experiments:
Type in all cases: functional
[1] = Antiproliferative activity against human IMR32 cells assessed as growth inhibition after 48 hrs by SRB assay; conditions: IMR-32, 48 h
[2] = Antiproliferative activity against human MiaPaCa cells assessed as growth inhibition after 48 hrs by SRB assay; conditions: MIA PaCa-2, 48 h
HeLa = experiment: Antiproliferative activity against human HeLa cells assessed as growth inhibition after 48 hrs by SRB assay
MDA-MB-231 = experiment: Antiproliferative activity against human MDA-MB-231 cells assessed as growth inhibition after 48 hrs by SRB assay; conditions: MDA-MB-231, 48 h

Row | SMILES | GI50 ([1]; read-out: GI50) [µM] | GI50 ([2]; read-out: GI50) [µM] | GI50 ([2]; read-out: pGI50 (converted)) [µM] | GI50 (HeLa; read-out: GI50) [µM] | GI50 (HeLa; read-out: pGI50 (converted)) [µM] | GI50 (MDA-MB-231; read-out: GI50) [µM] | GI50 (MDA-MB-231; read-out: pGI50 (converted)) [µM] | GI50 ([1]; read-out: pGI50 (converted)) [µM]
1 | O=c1c2ccccc2nc(-c2ccc(Cl)cc2)n1C/C=C/c1ccc(-c2cnc3ccccc3n2)cc1 | < 0.01 | 6.4 | 6.41 | 69.5 | 69.5 | 0.57 | 0.57 | –
2 | COc1ccc(-c2nc3ccccc3c(=O)n2C/C=C/c2ccc(-c3cnc4ccccc4n3)cc2)c(F)c1 | 1.2 | 28.6 | 28.6 | 0.9 | 0.902 | < 0.01 | – | 1.2
3 | O=c1c2ccccc2nc(-c2ccc(F)cc2)n1C/C=C/c1ccc(-c2cnc3ccccc3n2)cc1 | 65 | < 0.01 | – | 16.1 | 16.1 | 1.7 | 1.7 | 65
4 | COc1cc(OC)c(-c2nc3ccccc3c(=O)n2C/C=C/c2ccc(-c3cnc4ccccc4n3)cc2)c(OC)c1 | 0.77 | 2.2 | 2.2 | 2.5 | 2.5 | < 0.01 | – | 0.771
5 | Cc1nc2ccccc2c(=O)n1CCCc1ccc(-c2cnc3ccccc3n2)cc1 | 0.22 | 1.2 | 1.2 | 0.032 | 0.0321 | 0.62 | 0.621 | 0.22
6 | CC(=O)O[C@H]1C(=O)[C@@]2(C)[C@H]([C@H](OC(=O)c3ccccc3)[C@]3(O)C[C@H](OC(=O)[C@H](O)[C@@H](NC(=O)c4ccccc4)c4ccccc4)C(C)=C1C3(C)C)[C@]1(OC(C)=O)CO[C@@H]1C[C@@H]2O [PACLITAXEL] | 0.075 | 0.056 | 0.0561 | 0.025 | 0.025 | 0.091 | 0.0912 | 0.0752
7 | Cc1ccc(-c2nc3ccccc3c(=O)n2C/C=C/c2ccc(-c3cnc4ccccc4n3)cc2)cc1 | 2.2 | 11.4 | 11.4 | 9.2 | 9.2 | 1.24 | 1.24 | 2.2
8 | COc1cccc2c1C(=O)c1c(O)c3c(c(O)c1C2=O)C[C@@](O)(C(=O)CO)C[C@@H]3O[C@H]1C[C@H](N)[C@H](O)[C@H](C)O1 [DOXORUBICIN] | 0.023 | 0.097 | 0.097 | 0.073 | 0.0731 | 0.085 | 0.0851 | 0.023
9 | COc1ccc(-c2nc3ccccc3c(=O)n2C/C=C/c2ccc(-c3cnc4ccccc4n3)cc2)c(OC)c1 | 6.3 | 13.6 | 13.6 | 31.6 | 31.6 | < 0.01 | – | 6.31
10 | O=c1c2ccccc2nc(-c2ccccc2)n1C/C=C/c1ccc(-c2cnc3ccccc3n2)cc1 | 1.01 | 2.8 | 2.81 | 5.1 | 5.11 | 6.4 | 6.41 | 1.01
11 | O=c1c2ccccc2nc(-c2ccc([N+](=O)[O-])cc2)n1C/C=C/c1ccc(-c2cnc3ccccc3n2)cc1 | < 0.01 | 6.1 | 6.11 | 0.9 | 0.902 | 0.14 | 0.14 | –
12 | O=c1c2ccccc2nc(-c2ccc(C(F)(F)F)cc2)n1C/C=C/c1ccc(-c2cnc3ccccc3n2)cc1 | 5.3 | 10 | 10 | 17.7 | 17.7 | 1.8 | 1.8 | 5.31
13 | O=c1c2ccccc2nc(-c2ccc(Cl)cc2Cl)n1C/C=C/c1ccc(-c2cnc3ccccc3n2)cc1 | 2.6 | 4.4 | 4.41 | > 100 | – | 0.4 | 0.401 | 2.6
14 | COc1ccc(-c2nc3ccccc3c(=O)n2C/C=C/c2ccc(-c3cnc4ccccc4n3)cc2)cc1 | 2.8 | 2.1 | 2.1 | 1.2 | 1.2 | 0.64 | 0.641 | 2.81
15 | CCOc1ccc(-c2nc3ccccc3c(=O)n2C/C=C/c2ccc(-c3cnc4ccccc4n3)cc2)cc1 | 0.47 | 2.2 | 2.2 | > 100 | – | > 100 | – | 0.471
16 | COc1cccc(-c2nc3ccccc3c(=O)n2C/C=C/c2ccc(-c3cnc4ccccc4n3)cc2)c1 | 0.32 | 2 | 2 | 0.12 | 0.12 | 1.25 | 1.25 | 0.321
17 | COc1ccc(OC)c(-c2nc3ccccc3c(=O)n2C/C=C/c2ccc(-c3cnc4ccccc4n3)cc2)c1 | 0.28 | 1.8 | 1.8 | 0.038 | 0.038 | 1.36 | 1.36 | 0.282
